Data reported in patent publication US10449221B2, “Differentiation of stem cells into thyroid tissue” (TRUSTEES OF BOSTON UNIVERSITY, priority 2015, dated 2019).

What was measured:
[1] = test system: Nkx2-1GFP+; Pax8tdTomato trace+ iPSC-derived cells; test: Lineage specification of bifluorescent reporter iPSC line by day 14; assay type: cell-based, mouse; settings: factor withdrawn or removed from the Nkx2-1 induction media, data not shown
[2] = test system: ESC-derived Nkx2-1+ cells; test: Thyroid marker mRNA by real time RT-PCR on Day 26 after outgrowth of day 14 sorted Nkx2-1+ cells; assay type: cell-based, mouse; settings: growth factors in specification media day 6 to 14; sorted day 14, replated until day 26
Method: For Anteriorization of endoderm, on day 5 (120 total hours of differentiation) EBs were plated onto p100 Petri dishes in Nog/SB media: cSFDM supplemented with 100 ng/ml mNoggin (R&D 1967-NG) and 10 μM SB431542 (Sigma S4317) as previously described (Longmire et al., 2012). For Nkx2-1+ endoderm induction, EBs were plated on gelatin coated 6 well plates at the equivalent density of 200,000 cells/well in Specification media: cSFDM supplemented as stated in the text with 100 ng/ml mWnt3a (R&D 1324-WN), 10 ng/ml hFGF10 (R&D 345-FG), 10 ng/ml mKGF (R&D 5028-KG), 10 ng/ml mBMP4 (R&D 5020-BP), 20 ng/ml hEGF (R&D 236-EG), 250 ng/ml mFGF2 (R&D 3139-FB) and 100 ng/ml Heparin Sodium Salt (Sigma […]2-1mCherry+ cells, or the populations otherwise indicated in the text were sorted using MoFlo or […] II SORP high speed cell sorters and replated onto gelatin-coated 24 well plates on day 12-14 at a density of 5×10^4 cells/well. […] Relative gene expression, normalized to 18S control, was calculated as fold change in 18S-normalized gene expression, over baseline, using the 2^(-ΔΔCT) method. […]

[3] = test system: ESC-derived definitive endoderm; test: Nkx2-1+ endoderm induction from ESC-derived endoderm, specification media day 6-14, flow cytometry on day 14; assay type: cell-based, mouse; settings: sequential withdrawal of each individual factor from the WFKBE+2 cocktail
Method: Definitive endoderm induction was performed in complete serum-free differentiation medium (cSFDM) consisting of 75% IMDM (Invitrogen 12440) and 25% Ham's Modified F12 medium (Cellgro 10-080-CV) supplemented with N2 and B27+RA (Invitrogen 17502-048 and 17504-44), 0.05% BSA (Invitrogen 15260-037), […] L-glutamine (Invitrogen 25030-081), 0.05 mg/ml ascorbic acid (Sigma A4544) and 4.5×10^-4M MTG (Sigma M6145) as previously described (Gouon-Evans et al., 2006, Longmire et al., 2012). Undifferentiated ESCs were trypsinized to form a single cell suspension and plated onto Petri dishes (500,000 cells/10 cm dish) resulting in the formation of embryoid bodies (EBs) over 60 hours. EBs were dissociated by trypsinization (0.05%, 1 min, 37° C.) and plated as single cells into cSFDM supplemented with 50 ng/ml Activin A (R&D systems 338-AC) for an additional 60 hours. For Anteriorization of endoderm, on day 5 (120 total hours of differentiation) EBs were plated onto p100 Petri dishes in Nog/SB media: cSFDM supplemented with 100 ng/ml mNoggin (R&D 1967-NG) and 10 μM SB431542 (Sigma S4317) as previously described (Longmire et al., 2012). For Nkx2-1+ endoderm induction, EBs were plated on gelatin coated 6 well plates at the equivalent density of 200,000 cells/well in Specification media: cSFDM supplemented as stated in the text with 100 ng/ml mWnt3a (R&D 1324-WN), 10 ng/ml hFGF10 (R&D 345-FG), 10 ng/ml mKGF (R&D 5028-KG), 10 ng/ml mBMP4 (R&D 5020-BP), 20 ng/ml hEGF (R&D 236-EG), 250 ng/ml mFGF2 (R&D 3139-FB) and 100 ng/ml Heparin Sodium Salt (Sigma […]2-1mCherry+ cells, or the populations otherwise indicated in the text were sorted using MoFlo or […] II SORP high speed cell sorters and replated onto gelatin-coated 24 well plates on day 12-14 at a density of 5×10^4 cells/well. Where indicated in the text, small molecule inhibitors were dissolved in DMSO according to manufacturer's instructions and added to the culture media from day 6 to 14 at the following working concentrations: Dorsomorphin 4 μM (Sigma P5499), PD98059 20 μM, SB203580 10 μM (both from Cell Signaling Technology, PHZ1164 and 5633), and LY294002 […] (Promega V1201).

hypothyroid mice = test: TSH response test; assay type: in vivo, mouse; settings: T3 4 μg per 100 g body weight i.p. daily for 4 days; all groups; data not shown
Method: To suppress endogenous production of T4 and TSH, T3 (4 μg per 100 g body weight (BW); Sigma T6397) was given daily by intraperitoneal injection for 4 days. 15 hours after the last injection, blood was taken from the submandibular vein to measure T4 and TSH after which a single injection of highly purified bTSH (Los Angeles Biomedical Research Institute, National Hormone and Peptide Program. Torrance, Calif.) at 30 mU per 100 g BW was given. 3 hours later blood samples were taken to assess the increase of total T4. Five mice per group (positive control group, Sham, and D30 ESCs recipients) were included in the experiment.

Compound | efficiency of lineage specification, percent yield of GFP+/tdTomato+ cells [1] | thyroid competence, thyroid marker mRNA on D26 [2] | Nkx2-1+ endodermal induction efficiency [3] | endogenous TSH and T4 after exogenous T3 (hypothyroid mice)
Wingless-Type MMTV Integration Site Family protein, member 3A [Wnt3a] | no significant impact | does not alter thyroid lineage specification | dispensable for Nkx2-1 induction efficiency | –
N[C@@H](Cc1cc(I)c(Oc2ccc(O)c(I)c2)c(I)c1)C(=O)O [T3, Triiodothyronine] | – | – | – | TSH suppression and abrogated T4 secretion
